Assay type in all cases: biochemical
In test [1] the target is MELK (Homo sapiens (Human), UniProt Q14680). Kind of test: MELK p81-based kinase assay, dose-response (IC50/Ki). As to conditions: for IC50: 40 μM ATP. Here is the method:
MELK and its substrate, Bcl-G were both recombinantly expressed and purified for use in screening assays (See Methods). […] 10 nM MELK 340 and 10 μM Bcl-GL in kinase assay buffer (50 mM HEPES pH 7.5, 100 mM KCl, 0.1 mM EDTA, 0.1 mM EGTA, 10 mM MgCl2, 10 μg/mL BSA) with 10 mM DTT were added to either 10 μM or 1 μM inhibitor aliquoted into 96 well plates (final 1% DMSO). The mixture was incubated at room temperature for 30 minutes prior to initiation of the assay with 40 μM γ-^32P-ATP (100-1000 CPM/pmol). 40 μL aliquots were spotted onto a p81 96 well filter plate (Unifilter, Whatman), quenched, and washed with 75 mM O-phosphoric acid 8 times, followed by a final wash with acetone for drying. Wells were then filled with scintillation fluid, sealed, and quantified using a MicroBeta TriLux liquid scintillation counter (PerkinElmer). Each inhibitor plate was assayed in duplicate, with at least 4 wells without MELK to establish background and at least 4 wells without inhibitor as a negative control. All readings were corrected for background signal based on the average counts from the wells without enzyme. Percent inhibition, defined as [100−(CPM+inhibitor/average CPM of positive controls)*100], was determined first at 10 μM inhibitor. The top 50 inhibitors were then re-screened in duplicate at 1 μM.
At set time points (0.25, 0.5, 1, 1.5, and 2 min for assays containing 10 nM MELK and 1, 2, 4, 6, and 10 min for assays containing 1 nM MELK), 30 μL aliquots were taken from each reaction and spotted onto 2×2 cm squares of p81 paper. Papers were washed 4 times in 75 mM O-phosphoric acid and once in acetone. Labeled protein was quantified by its associated CPM determined on a Packard 1500 scintillation counter at a sigma value of 2. CPM were translated into nmol ^32P incorporated using Equation 1.
Rates in the presence of each concentration of inhibitor were determined by plotting nmol ^32P incorporated vs. time. These rates were normalized to rates obtained without inhibitor, and data were plotted in terms of fractional activity. In most cases, data were fit to Equation 2. If the IC50 approached the amount of enzyme used in the assay, data were re-fit to the equation for tight-binding inhibitors (the Morrison equation, […]). […] Data were transformed as discussed and fit to Equation 3.
IC50 values were used to estimate each inhibitor's Ki using the Cheng-Prusoff relationship for competitive inhibitors (Equation 4).

Test [2] deals with CAMKK2 (Homo sapiens (Human), UniProt Q96RR4). Kind of test: Selectivity dose-response kinase assay, CAMKK2. As to conditions: for Ki: 100 μM ATP. The source says:
(§1) CHK1 and NUAK1 were purchased from SignalChem (Vancouver, BC). The NUAK2, CHK, and SAMS peptides were purchased from BioSyn (Lewisville, Tex.). The sequence of CHK and NUAK2 peptides are described elsewhere (Sanchez Y, et al. Science (New York, N.Y.). 1997; 277(5331):1497-1501; Scott J W, et al. Sci Rep. 2015; 5:14436). ERK2, AMPK, CAMKK2, and Ets1 were produced in house as previously described (Waas W F, Dalby K N. The Journal of biological chemistry. 2002; 277(15):12532-12540; Neumann D, et al. Protein Expr Purif. 2003; 30(2):230-237; Waas W F, Dalby K N. Protein Expr Purif. 2001; 23(1):191-197). Apparent KM values for ATP under specific assay conditions were determined using respective experimental conditions in Table 8 with varied ATP (0-1.28 mM). All selectivity dose-response assays were performed in kinase assay buffer (see Inhibitor Library Screen) with 2 mM DTT and 100 μM γ-^32P-ATP with additional conditions listed in Table 8. IC50 and KM^ATP values were subsequently used to calculate Ki (Equation 4). Relative selectivity was determined by comparing Ki^Enzyme/Ki^MELK (termed φ in Table 7). […] Standard error from linear regression data was propagated internally in Prism and taken into account in nonlinear regression to determine IC50 or Ki.

The target in test [3] is CHK1 (Homo sapiens (Human), UniProt O14757). Kind of test: Selectivity dose-response kinase assay, CHK1. To be noted: for Ki: 100 μM ATP.
Sequence of CHK1 (O14757 whole entry): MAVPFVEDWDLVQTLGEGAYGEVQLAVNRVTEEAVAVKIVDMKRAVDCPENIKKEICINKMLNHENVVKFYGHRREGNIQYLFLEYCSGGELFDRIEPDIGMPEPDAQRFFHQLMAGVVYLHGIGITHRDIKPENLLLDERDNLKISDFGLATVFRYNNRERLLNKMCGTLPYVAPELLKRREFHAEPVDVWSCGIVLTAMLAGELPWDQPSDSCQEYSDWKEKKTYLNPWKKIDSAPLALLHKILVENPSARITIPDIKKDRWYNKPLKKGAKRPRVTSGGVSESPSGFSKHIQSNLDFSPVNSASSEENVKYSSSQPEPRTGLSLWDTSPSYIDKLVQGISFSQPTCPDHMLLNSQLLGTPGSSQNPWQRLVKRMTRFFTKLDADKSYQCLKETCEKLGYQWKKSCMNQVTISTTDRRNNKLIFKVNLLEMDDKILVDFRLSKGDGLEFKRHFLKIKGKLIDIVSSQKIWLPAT
From the text: as §1

Test [4] has as its system AMPK. Kind of test: Selectivity dose-response kinase assay, AMPK.
From the text: as §1

Test [5] deals with AMPK (Rattus norvegicus (Rat), UniProt P54645). Briefly: Selectivity dose-response kinase assay, AMPK. To be noted: 100 μM ATP.
Sequence of AMPK (Rattus norvegicus (Rat), UniProt P54645) (P54645 whole entry, looked up): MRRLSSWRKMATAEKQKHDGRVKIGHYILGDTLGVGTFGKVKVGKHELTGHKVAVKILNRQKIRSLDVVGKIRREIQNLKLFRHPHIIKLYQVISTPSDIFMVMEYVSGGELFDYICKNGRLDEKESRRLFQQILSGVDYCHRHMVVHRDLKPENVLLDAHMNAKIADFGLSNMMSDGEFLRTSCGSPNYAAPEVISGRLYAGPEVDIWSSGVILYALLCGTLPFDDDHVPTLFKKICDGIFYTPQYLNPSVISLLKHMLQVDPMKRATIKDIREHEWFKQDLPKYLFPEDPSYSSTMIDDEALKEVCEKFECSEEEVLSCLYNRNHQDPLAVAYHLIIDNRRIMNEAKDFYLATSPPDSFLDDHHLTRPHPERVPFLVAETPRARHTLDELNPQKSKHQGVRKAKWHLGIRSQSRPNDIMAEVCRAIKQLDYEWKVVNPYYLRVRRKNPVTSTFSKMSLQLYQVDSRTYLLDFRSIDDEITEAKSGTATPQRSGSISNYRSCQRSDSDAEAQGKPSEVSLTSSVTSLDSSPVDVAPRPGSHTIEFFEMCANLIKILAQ
Sequence of AMPK (Rattus norvegicus (Rat), UniProt P54645) (P80386 whole entry partner, looked up): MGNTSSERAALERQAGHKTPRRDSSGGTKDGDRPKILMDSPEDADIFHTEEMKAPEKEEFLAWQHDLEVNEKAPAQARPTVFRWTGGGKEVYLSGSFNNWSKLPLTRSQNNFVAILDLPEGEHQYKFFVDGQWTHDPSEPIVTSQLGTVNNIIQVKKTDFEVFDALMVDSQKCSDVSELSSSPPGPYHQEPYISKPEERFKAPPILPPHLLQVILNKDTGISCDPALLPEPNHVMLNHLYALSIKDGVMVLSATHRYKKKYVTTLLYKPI
Sequence of AMPK (Rattus norvegicus (Rat), UniProt P54645) (P80385 whole entry partner, looked up): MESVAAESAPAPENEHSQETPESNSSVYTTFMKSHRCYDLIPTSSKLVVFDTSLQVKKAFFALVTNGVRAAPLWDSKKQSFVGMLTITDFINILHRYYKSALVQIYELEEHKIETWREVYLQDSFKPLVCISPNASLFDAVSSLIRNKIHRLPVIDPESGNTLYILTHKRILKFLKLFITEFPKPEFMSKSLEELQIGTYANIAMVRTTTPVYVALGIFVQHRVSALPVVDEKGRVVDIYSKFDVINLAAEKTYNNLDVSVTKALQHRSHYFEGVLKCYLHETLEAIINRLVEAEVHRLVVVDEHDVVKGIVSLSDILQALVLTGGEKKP
From the text: as §1

Test [6] addresses NUAK1 (Homo sapiens (Human), UniProt O60285). Kind of test: Selectivity dose-response kinase assay, NUAK1. To be noted: for Ki: 100 μM ATP.
From the text: as §1

In test [7] the target is ERK2 (Rattus norvegicus (Rat), UniProt P63086). Kind of test: Selectivity dose-response kinase assay, ERK2.
Sequence of ERK2 (P63086 whole entry): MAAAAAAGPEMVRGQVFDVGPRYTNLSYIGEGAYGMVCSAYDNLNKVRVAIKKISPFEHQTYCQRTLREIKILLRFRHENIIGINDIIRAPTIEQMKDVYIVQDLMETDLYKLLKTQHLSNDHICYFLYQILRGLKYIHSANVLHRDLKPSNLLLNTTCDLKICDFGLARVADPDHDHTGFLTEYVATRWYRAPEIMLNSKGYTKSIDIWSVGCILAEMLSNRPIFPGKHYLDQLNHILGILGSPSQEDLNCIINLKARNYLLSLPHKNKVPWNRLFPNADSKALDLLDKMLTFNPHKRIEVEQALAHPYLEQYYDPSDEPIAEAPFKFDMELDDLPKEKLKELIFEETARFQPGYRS
From the text: as §1

Where [8] appears, read: cross-inhibition of MELK by known kinase inhibitors, read-out: IC50 ± SE.
The mark [9] stands for this setting: fragment and intermediate potency (synthetic intermediates), read-out: Ki ± SD.
[10] abbreviates: Ki calculated using Equation 4, [ATP] = 40 μM, KM app (ATP) = 6 μM.
The mark [11] stands for this setting: Ki calculated using Equation 4, [ATP] = 40 μM, KM app (ATP) = 6 μM, read-out: Ki ± SE.
The mark [12] stands for this setting: indolinone derivatives, read-out: IC50.
Where [13] appears, read: selectivity table, MELK, read-out: Ki.

Structures are written as SMILES. Read-outs that look alike come from different tables or passages of the source.

Sequence of NUAK1 (O60285 whole entry): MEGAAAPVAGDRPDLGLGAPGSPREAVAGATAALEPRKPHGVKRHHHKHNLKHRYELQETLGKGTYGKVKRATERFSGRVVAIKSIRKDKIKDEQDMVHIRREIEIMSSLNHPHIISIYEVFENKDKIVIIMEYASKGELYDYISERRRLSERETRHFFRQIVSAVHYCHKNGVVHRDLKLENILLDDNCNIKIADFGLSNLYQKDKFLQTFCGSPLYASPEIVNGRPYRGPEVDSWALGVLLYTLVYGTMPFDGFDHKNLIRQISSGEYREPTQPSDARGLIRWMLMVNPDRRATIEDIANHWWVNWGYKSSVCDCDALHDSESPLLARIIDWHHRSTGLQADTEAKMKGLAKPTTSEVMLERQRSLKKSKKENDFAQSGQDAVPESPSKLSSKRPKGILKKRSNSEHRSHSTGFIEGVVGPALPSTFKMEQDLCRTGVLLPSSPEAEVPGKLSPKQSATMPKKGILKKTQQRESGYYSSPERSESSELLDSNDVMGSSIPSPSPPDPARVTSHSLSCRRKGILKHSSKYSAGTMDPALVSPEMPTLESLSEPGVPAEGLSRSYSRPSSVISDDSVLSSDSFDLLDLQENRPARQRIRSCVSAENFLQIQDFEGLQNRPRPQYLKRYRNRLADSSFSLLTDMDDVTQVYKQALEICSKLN
Sequence of CAMKK2 (Q96RR4 whole entry, species assumed): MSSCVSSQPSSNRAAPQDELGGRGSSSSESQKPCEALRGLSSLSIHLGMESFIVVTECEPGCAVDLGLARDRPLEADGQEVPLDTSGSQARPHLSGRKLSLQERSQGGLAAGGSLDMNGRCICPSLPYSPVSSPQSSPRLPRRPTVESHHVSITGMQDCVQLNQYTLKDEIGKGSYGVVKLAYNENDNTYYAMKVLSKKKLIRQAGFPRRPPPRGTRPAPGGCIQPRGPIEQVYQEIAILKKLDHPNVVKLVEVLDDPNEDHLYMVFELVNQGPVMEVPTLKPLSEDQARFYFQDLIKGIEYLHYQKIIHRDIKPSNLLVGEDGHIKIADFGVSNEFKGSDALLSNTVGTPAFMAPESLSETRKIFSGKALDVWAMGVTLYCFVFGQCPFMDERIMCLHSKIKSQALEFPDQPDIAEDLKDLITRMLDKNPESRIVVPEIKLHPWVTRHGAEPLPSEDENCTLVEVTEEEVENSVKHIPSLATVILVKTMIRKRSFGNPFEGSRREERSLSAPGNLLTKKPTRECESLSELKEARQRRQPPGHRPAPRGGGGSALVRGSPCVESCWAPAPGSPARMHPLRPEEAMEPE
Sequence of MELK (Q14680 1-340): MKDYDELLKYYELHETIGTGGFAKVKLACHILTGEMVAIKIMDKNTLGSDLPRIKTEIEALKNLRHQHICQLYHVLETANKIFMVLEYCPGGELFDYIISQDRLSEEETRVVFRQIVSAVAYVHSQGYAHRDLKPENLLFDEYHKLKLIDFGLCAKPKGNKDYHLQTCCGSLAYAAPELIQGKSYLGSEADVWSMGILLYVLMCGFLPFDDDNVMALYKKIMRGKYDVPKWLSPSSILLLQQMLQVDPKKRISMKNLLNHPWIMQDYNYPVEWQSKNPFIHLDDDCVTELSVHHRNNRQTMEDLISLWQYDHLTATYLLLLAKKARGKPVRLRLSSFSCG

In the case of `NC(=O)Nc1cc(-c2cccc(F)c2)sc1C(=O)N[C@@H]1CCCNC1` [AZD776, reference compound], in test [1] (setting [8]), the IC50 – broadly, the point on the concentration scale where inhibition reaches its midpoint – came out at 900 ± 91 nM.
On the same count and under the same terms, then `c1cc(OCCN2CCCCC2)cc(-c2n[nH]c3ccc(-c4nc[nH]n4)cc23)c1` [CC401, reference compound], with 340 ± 70 nM.
With `CCO/C(=C1\C(=O)N(C(C)=O)c2cc(C(=O)OC)ccc21)c1ccccc1` [Compound 6, Methyl (Z)-1-acetyl-3-(ethoxy(phenyl)methylene)-2-oxoindoline-6-carboxylate], the Ki in test [1] (setting [9]) was above 5000 nM.
As for `CCO/C(=C1\C(=O)N(C(C)=O)c2ccc(C(=O)OC)cc21)c1ccccc1` [Compound 8, Methyl (Z)-1-acetyl-3-(ethoxy(phenyl)methylene)-2-oxoindoline-5-carboxylate], the Ki in test [1] (setting [9]) was above 5000 nM.
Consider `CN1CCN(CC(=O)N(C)c2ccc(N)cc2)CC1` [Compound 14, N-(4-Aminophenyl)-N-methyl-2-(4-methylpiperazin-1-yl)acetamide], for which, in test [1] (setting [9]), the Ki was above 5000 nM.
For the compound `CN1CCN(CC(=O)N(C)c2ccc(N/C(=C3\C(=O)Nc4ccccc43)c3ccccc3)cc2)CC1` [Compound 16, (Z)—N-Methyl-2-(4-methylpiperazin-1-yl)-N-(4-(((2-oxoindolin-3-ylidene)(phenyl)methyl)amino)phenyl)acetamide], the Ki in test [2] was 15 ± 1.8 nM; in test [3], 10 ± 0.5 nM; in test [1] (setting [11]), 0.47 nM; in test [1] (setting [13]) it was 0.47 ± 0.06 nM; in test [5], 4.2 ± 0.3 nM; in test [6], 1.7 ± 0.17 nM. Also, the “Ki ± SE” value in test [1] (setting [10]) was “subnanomolar”. In addition, the IC50 in test [1] (setting [12]) amounted to 3.6 ± 0.4 nM. The “difference in Ki compared to MELK” value in test [4] and in test [6] was 5-10 fold in each case.
In the case of `CC(=O)c1ccc2c(c1)/C(=C(/Nc1ccc(N(C)C(=O)CN3CCN(C)CC3)cc1)c1ccccc1)C(=O)N2` [Compound 18, (Z)—N-(4-(((5-Acetyl-2-oxoindolin-3-ylidene)(phenyl)methyl)amino)phenyl)-N-methyl-2-(4-methylpiperazin-1-yl)acetamide], the Ki in test [1] (setting [11]) is 46 ± 4.6 nM. In addition, the IC50 in test [1] (setting [12]) is 354 ± 35 nM.
The corresponding values for `CN1CCN(CC(=O)N(C)c2ccc(N/C(=C3\C(=O)Nc4cc(C(=O)O)ccc43)c3ccccc3)cc2)CC1` [Compound 20, (Z)-3-(((4-(N-Methyl-2-(4-methylpiperazin-1-yl)acetamido)phenyl)amino)(phenyl)methylene)-2-oxoindoline-6-carboxylic acid] are 149 ± 22 nM and 1140 ± 168 nM.
As for `CN1CCN(CC(=O)N(C)c2ccc(N/C(=C3\C(=O)Nc4ccc(C(=O)O)cc43)c3ccccc3)cc2)CC1` [Compound 21, (Z)-3-(((4-(N-Methyl-2-(4-methylpiperazin-1-yl)acetamido)phenyl)amino)(phenyl)methylene)-2-oxoindoline-5-carboxylic acid], the “difference in relative Ki compared to MELK” value in test [2], in test [3] and in test [7] was above 100 fold throughout. Moreover, the “φ = Ki Enzyme/Ki MELK” value in test [2] was 125 ± 0.2; in test [3], 120 ± 0.1; in test [7], 28000 ± 0.2; in test [1] (MELK), 1.00; in test [4] it was 7.2 ± 0.2; in test [6], 13 ± 0.2. Further, the Ki is 85 ± 9.2 nM in test [2]; 81 ± 5.6 nM in test [3]; 19000 ± 3800 nM in test [7] (100 μM ATP); 0.68 ± 0.07 nM in test [1] (setting [11]); 0.68 ± 0.07 nM in test [1] (setting [13]); 4.9 ± 0.6 nM in test [5]. In test [6], the Ki was 8.6 ± 1.6 nM. In addition, the “Ki ± SE” value in test [1] (setting [10]) is given as “subnanomolar”. In test [1] (setting [12]), the IC50 stood at 5.2 ± 0.5 nM.
Regarding `CN(C)CCCNC(=O)c1ccc2c(c1)NC(=O)/C2=C(\Nc1ccc(N(C)C(=O)CN2CCN(C)CC2)cc1)c1ccccc1` [Compound 22, (Z)—N-(3-(Dimethylamino)propyl)-3-(((4-(N-methyl-2-(4-methylpiperazin-1-yl)acetamido)phenyl)amino)(phenyl)methylene)-2-oxoindoline-6-carboxamide], the Ki in test [1] (setting [11]) was 358 ± 71 nM. For the same compound, in test [1] (setting [12]), the IC50 was determined as 2700 ± 540 nM.
With `CN1CCN(CC(=O)N(C)c2ccc(N/C(=C3\C(=O)Nc4cc(C(=O)NCCCN)ccc43)c3ccccc3)cc2)CC1` [Compound 23, (Z)—N-(3-Aminopropyl)-3-(((4-(N-methyl-2-(4-methylpiperazin-1-yl)acetamido)phenyl)amino)(phenyl)methylene)-2-oxoindoline-6-carboxamide], the IC50 in test [1] (setting [12]) was above 5000 nM.
`CNC(=O)c1ccc2c(c1)/C(=C(/Nc1ccc(N(C)C(=O)CN3CCN(C)CC3)cc1)c1ccccc1)C(=O)N2` [Compound 24, (Z)—N-Methyl-3-(((4-(N-methyl-2-(4-methylpiperazin-1-yl)acetamido)phenyl)amino)(phenyl)methylene)-2-oxoindoline-5-carboxamide]: the Ki in test [1] (setting [11]) is 2.3 nM. For the same compound, the IC50 in test [1] (setting [12]) came to 18 ± 3.8 nM.
Regarding `CC(C)(C)c1nc2c3ccc(F)cc3c3c(=O)[nH]ccc3c2[nH]1` [Compound 420099, reference compound], the IC50 in test [1] (setting [8]) was 330 ± 37 nM.
Turning to `O=C1Nc2ccc3scnc3c2/C1=C/c1cnc[nH]1` [Compound 527450, reference compound], the IC50 in test [1] (setting [8]) turned out to be 720 ± 100 nM.
Turning to `CCN(CC)CCNC(=O)c1c(C)[nH]c(/C=C2\C(=O)Nc3ccc(Cl)cc32)c1C` [Compound 572660, reference compound], the IC50 in test [1] (setting [8]) was determined as 760 ± 190 nM.
Take `N=C(N)NCCNS(=O)(=O)c1cccc2cnccc12` [HA-1004, reference compound]: in test [1] (setting [8]), the IC50 was 440 ± 210 nM.
Take `CCS(=O)(=O)Nc1ccc2c(c1)/C(=C(/Nc1ccc(CN3CCCCC3)cc1)c1ccccc1)C(=O)N2` [Hesperadin, reference compound]: the IC50 in test [1] (setting [8]) was 225 ± 50 nM.
For `Cc1ccc([N+](=O)[O-])cc1S(=O)(=O)N(C)/N=C/c1cnc2ccc(Br)cn12` [PIK75, reference compound], the IC50 in test [1] (setting [8]) was 400 ± 72 nM.

The values are drawn from patent US10981896B2, “Indolinone derivatives as inhibitors of maternal embryonic leucine zipper kinase” (BOARD OF REGENTS, THE UNIVERSITY OF TEXAS SYSTEM, priority 2017, dated 2021).
